Results: patent publication US20020002170A1, “Piperidine and piperazine derivatives as inhibitors of the abeta fibril formation” (priority 1999, published 2002)
Counter-ions that a name gives are not always drawn.

Structure (SMILES)	melting point
CN1C[C@H](CN2CCC(O)(c3ccc(Cl)cc3)CC2)C=C2c3cccc4c3c(cn4C)C[C@H]21	101 to 107 °C
CN1C[C@H](CN2CCC(O)(c3ccc(Cl)cc3)CC2)C=C2c3cccc4[nH]c(Cl)c(c34)C[C@H]21	> 192 °C (dec.)
CN1C[C@H](CN2CCN(C(c3ccccc3)c3ccccc3)CC2)C=C2c3cccc4[nH]cc(c34)C[C@H]21	> 200 °C (dec.)
CO[C@]12C[C@@H](CCN3CCN(C(c4ccccc4)c4ccccc4)CC3)CN(C)[C@@H]1Cc1c[nH]c3cccc2c13	130 °C
CN1C[C@H](CN2CCN(C(c3ccccc3)c3ccccc3)CC2)C=C2c3cccc4[nH]c(Cl)c(c34)C[C@H]21	208 °C (dec.)
COc1ccc(C2(c3ccc(OC)cc3)CCN(C[C@@H]3C[C@@H]4Cc5c(cccc5OC)C[C@H]4N(C)C3)CC2)cc1 (as salt: fumarate)	216 to 219 °C
COc1ccc(C2(c3ccc(OC)cc3)CCN(C[C@@H]3C=C4c5cccc6[nH]c(Cl)c(c56)C[C@H]4N(C)C3)CC2)cc1	> 204 °C (dec.)
CO[C@]12C[C@@H](CCN3CCC(O)(c4ccc(Cl)cc4)CC3)CN(C)[C@@H]1Cc1c[nH]c3cccc2c13	133 to 139 °C
COc1cccc2c1C[C@H]1C[C@@H](CCN3CCN(C(c4ccccc4)c4ccccc4)CC3)CN(C)[C@@H]1C2 [Example 5, [3S,4aR,10aR]-3-[2-(4-Benzhydryl-piperazin-1-yl)-ethyl]-6-methoxy-1-methyl-1,2,3,4,4a,5,10,10a-octahydro-benzo[g]quinoline]	140 to 148 °C
CO[C@]12C[C@@H](CN3CCC(O)(c4ccc(Cl)c(C(F)(F)F)c4)CC3)CN(C)[C@@H]1Cc1c[nH]c3cccc2c13	143 to 146 °C
COc1ccc(C2(c3ccc(OC)cc3)CCN(CC[C@@H]3C[C@@H]4Cc5c(cccc5OC)C[C@H]4N(C)C3)CC2)cc1 (as salt: succinate)	138 to 142 °C
CN1C[C@H](CCN2CCN(C(c3ccccc3)c3ccccc3)CC2)C[C@@H]2c3cccc4[nH]cc(c34)C[C@H]21	206 to 212 °C
CN1C[C@H](CCN2CCC(O)(c3ccc(Cl)cc3)CC2)C=C2c3cccc4[nH]cc(c34)C[C@H]21	154 to 157 °C
CN1C[C@H](CN2CCN(C(c3ccccc3)c3ccccc3)CC2)C[C@@H]2c3cccc4[nH]c(Cl)c(c34)C[C@H]21	250 °C (dec.)
COc1cccc2c1C[C@H]1C[C@@H](CCN3CCC(O)(c4ccc(Cl)cc4)CC3)CN(C)[C@@H]1C2 (as salt: succinate)	212 to 215 °C
COc1ccc(C2(c3ccc(OC)cc3)CCN(C[C@H]3CN(C)[C@@H]4Cc5c[nH]c6cccc(c56)[C@@]4(OC)C3)CC2)cc1	215 to 222 °C
CO[C@]12C[C@@H](CN3CCC(O)(c4cccc(C(F)(F)F)c4)CC3)CN(C)[C@@H]1Cc1c[nH]c3cccc2c13	135 to 140 °C
COc1ccc(C2(c3ccc(OC)cc3)CCN(CC[C@@H]3C=C4c5cccc6[nH]cc(c56)C[C@H]4N(C)C3)CC2)cc1	184 to 187 °C (dec.)
COc1cccc2c1C[C@H]1C[C@@H](CN3CCC(O)(c4ccc(Cl)cc4)CC3)CN(C)[C@@H]1C2	202 to 204 °C
COc1cccc2c1C[C@H]1C[C@@H](CN3CCN(C(c4ccccc4)c4ccccc4)CC3)CN(C)[C@@H]1C2 [Example 10, [3S,4aR,10aR]-3-(4-Benzhydryl-piperazin-1-ylmethyl)-6-methoxy-1-methyl-1,2,3,4,4a,5,10,10a-octahydro-benzo[g]quinoline]	278 to 280 °C
CN1C[C@H](CN2CCN(C(c3ccccc3)c3ccccc3)CC2)C[C@@H]2c3cccc4[nH]c(Br)c(c34)C[C@H]21	255 °C (dec.)
CO[C@]12C[C@@H](CN3CCC(O)(c4ccc(Cl)cc4)CC3)CN(C)[C@@H]1Cc1c[nH]c3cccc2c13	144 to 148 °C
COc1cccc2c1C[C@H]1C[C@@H](CN3CCC(NC(=O)C(c4ccccc4)c4ccccc4)CC3)CN(C)[C@@H]1C2 [Example 12, N-[1-((3S,4aR,10aR)-6-Methoxy-1-methyl-1,2,3,4,4a,5,10,10a-octahydro-benzo[g]quinolin-3-ylmethyl)-piperidin-4-yl]-2,2-diphenyl-acetamide]	219 to 222 °C
CN1C[C@H](CN2CCN(C(c3ccccc3)c3ccccc3)CC2)C[C@@H]2c3cccc4[nH]cc(c34)C[C@H]21	230 to 233 °C
CN1C[C@H](CCN2CCN(C(c3ccccc3)c3ccccc3)CC2)C=C2c3cccc4[nH]cc(c34)C[C@H]21	165 to 169 °C
CCN1C[C@H](CN2CCN(C(c3ccccc3)c3ccccc3)CC2)C[C@@H]2c3cccc4[nH]cc(c34)C[C@H]21	203 to 205 °C
CN1C[C@H](CN2CCN(C(c3ccccc3)c3ccccc3)CC2)C=C2c3cccc4c3c(cn4C)C[C@H]21	172 to 175 °C
COc1ccc(C2(c3ccc(OC)cc3)CCN(C[C@H]3CN(C)[C@@H]4Cc5c(Br)[nH]c6cccc(c56)[C@@]4(OC)C3)CC2)cc1 (as salt: tartrate)	167 to 172 °C
COc1ccc(C2(c3ccc(OC)cc3)CCN(CC[C@H]3CN(C)[C@@H]4Cc5c[nH]c6cccc(c56)[C@@]4(OC)C3)CC2)cc1	129 to 136 °C
